Data on one molecule can be found in patent US20050143411A1, “Method for treating pulmonary disease” (Fujisawa Pharmaceutical Co., Ltd., priority 2003, published 2005).

For the test, the system named is cigarette smoke exposed guinea pigs. As to the kind of experiment: cigarette smoke-induced COPD model in guinea pigs; specific airway resistance (sRaw) by double body plethysmograph. Type of test: in vivo, Hartley guinea pigs. As to the method: The effect of the FK506 Substance on the cigarette smoke-induced COPD model in guinea pigs was confirmed in the following manner.
1. Hartley guinea pigs were exposed to cigarette smoke in a nose-only inhalation chamber for 60 min/day, 5 days/week, for 4 weeks. Animals of the negative control group were exposed to the air.
2. FK506 Substance in the form of a solid dispersion composition, which was prepared in a similar manner to that of Example 1 (above), or its placebo was given orally, after suspension in water, every day about 1 hr before the cigarette smoke exposure.
3. Specific airway resistance (sRaw) was measured as a respiratory function parameter at 0, 1, 2, 3 and 4 weeks after the start of cigarette smoke inhalation by a double body plethysmograph method (Ref. 1).
Reference • Ref. 1; Pennock B E, Cox C P, Rogers R M, Cain W A, Wells J H. A Noninvasive technique for measurement of changes in specific airway resistance. J Appl Physiol. 1979 February; 46(2):399-406. Results

For the molecule `C=CCC1C=C(C)CC(C)CC(OC)C2OC(O)(C(=O)C(=O)N3CCCCC3C(=O)OC(C(C)=CC3CCC(O)C(OC)C3)C(C)C(O)CC1=O)C(C)CC2OC` (centres unmarked) [FK506, 17-allyl-1,14-dihydroxy-12-[2-(4-hydroxy-3-methoxycyclohexyl)-1-methylvinyl]-23,25-dimethoxy-13,19,21,27-tetramethyl-11,28-dioxa-4-azatricyclo[22.3.1.0^4,9]octacos-18-ene-2,3,10,16-tetraone], the sRaw was 1.815 ± 0.073 cmH2O × mL/(mL/sec) (FK506 0.32 mg/kg orally every day, 1 week of cigarette smoke exposure); 2.089 ± 0.054 cmH2O × mL/(mL/sec) (FK506 0.32 mg/kg orally every day, 2 weeks of cigarette smoke exposure); 2.476 ± 0.112 cmH2O × mL/(mL/sec) (FK506 0.32 mg/kg orally every day, 3 weeks of cigarette smoke exposure); 2.636 ± 0.133 cmH2O × mL/(mL/sec) (FK506 0.32 mg/kg orally every day, 4 weeks of cigarette smoke exposure); 1.892 ± 0.048 cmH2O × mL/(mL/sec) (FK506 0.32 mg/kg orally every day, pre (0 weeks), n=8); 1.844 ± 0.123 cmH2O × mL/(mL/sec) (FK506 1 mg/kg orally every day, 1 week of cigarette smoke exposure). Besides, the sRaw is listed as 2.012 ± 0.103 cmH2O × mL/(mL/sec) (FK506 1 mg/kg orally every day, 2 weeks of cigarette smoke exposure); 2.372 ± 0.167 cmH2O × mL/(mL/sec) (FK506 1 mg/kg orally every day, 3 weeks of cigarette smoke exposure); 2.763 ± 0.276 cmH2O × mL/(mL/sec) (FK506 1 mg/kg orally every day, 4 weeks of cigarette smoke exposure); 1.899 ± 0.064 cmH2O × mL/(mL/sec) (FK506 1 mg/kg orally every day, pre (0 weeks), n=8). The “effect on decline of the respiratory function (increase of sRaw) caused by cigarette smoke” value (orally given, cigarette smoke exposed guinea pigs) is “significantly suppressed the decline of the respiratory function”.
